{"source": "patent US12414948B2", "about": "“Methods” (INTRA-CELLULAR THERAPIES, INC., priority 2022, dated 2025)", "key": {"[1]": {"tested_on": "hippocampal microglia mRNA (Il1b, Il6, Tnfa, Nlrp3, Csf1r)", "test": "mRNA (RT-qPCR) in microglia enriched from rat hippocampus after LPS", "assay_type": "in vivo", "settings": "rats, LPS 500 μg/kg; label LPS = LPS + vehicle, label Luma = Luma 3 mg/kg 16 h after LPS; microglia isolated +18 h; normalized to control (Dct)", "experimental": "Microglia Enrichment. […] Brain tissue is then processed through a dounce homogenizer followed by passages through 16- and 20-gauge needles. One mL of medium A is added to wash cell suspension, which is passed through a […] cell strainer and kept on ice. Next, 6 mL of 100% Percoll solution (9 parts of Percoll [GE Healthcare, Chicago, IL] and 1 part of HBSS) is added to obtain a 75% Percoll solution. The 75% Percoll cell suspension is then underlaid a layer of 25% Percoll solution containing Phenol red, which has a layer of PBS on top. The discontinuous Percoll density gradient is layered as followed: 75%, 25%, and 0% isotonic Percoll (PBS) to isolate hippocampal microglia. The gradients are then centrifuged at 4° C. for 25 minutes at 3,000 rpm in swinging buckets with minimal acceleration and deceleration and no brake. After centrifugation, the top layer containing myelin and debris (interface PBS/25% Percoll) is removed and the cellular layer at the 25%/75% interphase is collected and washed. Pilot experiments compare the gene expression of the different fractions and validated the presence of microglia in the interphase layer. The final pellet is resuspended in 350 μL of Buffer RLT from Qiagen microkit (Qiagen) to perform RNA extraction according to the manufacturer's instructions.\nExploratory experiments reveal that in microglia-enriched fractions from rat hippocampi, inflammation is returned closer to background levels at +26 hours after a dose of LPS. Thus, an earlier time point of +18 h after the LPS injection is selected to assess potential changes indicative of inflammation.\nHippocampi on both sides of the brain are collected 2 hours later (+18 hour from LPS injection) and microglia are rapidly isolated in an enriched fraction by Percoll gradient. RNA is extracted from the resulting, reconstituted cell pellet and RT-qPCR is performed. The results are shown in Table 7 as relative change in mRNA levels for each cytokine gene (Il1b, Il6, Tnfa, Nlrp3, Csf1r) normalized to the control group using the Dct method (n=8-12 per group): […]"}, "[2]": {"tested_on": "hippocampal gene expression (NanoString gene sets and genes)", "test": "NanoString nCounter hippocampal gene expression after co-injection of LPS and lumateperone", "assay_type": "in vivo, mouse", "text": "NanoString. The mouse neuropathology panel includes 770 genes associated with themes of neurotransmission, neuron-glia interaction, neuroplasticity, cell structure integrity, neuroinflammation and metabolism. A total of 13 housekeeping genes are used for expression normalization (Aars: NM_146217.4, Asb10: NM_080444.4, Ccdc127: NM_024201.3, Cnot10: NM_153585.5, Csnk2a2: NM_009974.3, Fam104a: NM_138598.5, Gusb: NM_010368.1, Lars: NM_134137.2, Mto1: NM_026658.2, Supt7l: NM_028150.1, Tada2b: NM_001170454.1:3224, Tbp: NM_013684.3:70, and Xpnpep1: NM_133216.3:1826, see FIG. 1-1). Hippocampal RNA is extracted using the Qiagen microkit (Qiagen) and is evaluated by the Agilent 2100 Bioanalyzer (Agilent Technologies, Santa Clara, CA) to assess RNA concentration, quality, and integrity. Sample preparation, hybridization, and detection (100 ng per sample, n=5-6 per group) are carried out according to NanoString manufacturer's instructions (NanoString Technologies, Seattle, WA). The normalized data are transformed to log 2 score to express the fold change. NanoString results (raw and normalized counts) are derived from RCC files using the nSolver software (version 2.6; NanoString Technologies). A complementary gene software analysis tool, ROSALIND® Advanced Analysis Software (NanoString Technologies), is also used, which provides comprehensive free cloud-based data analysis for nCounter data by directly analyzing raw RCC files generated from NanoString. Data are imported into ROSALIND® Advanced Analysis Software for normalization, calculation of fold-changes, P values, identification of enriched pathways, and heatmaps.\nIt is calculated similarly to a undirected global significance score, but it takes into account the sign of the t-statistic. Scores were calculated by nSolver software, using the control group as a reference."}, "Sprague-Dawley rats": {"tested_on": "Sprague-Dawley rats", "test": "Open Field Test (OFT), locomotion", "assay_type": "in vivo, rat", "settings": "for Open field track length: rats given LPS 1 mg/kg SC, label LPS = LPS + Vehicle, label Luma = Luma 1 mg/kg IP before and after LPS, text: open field track length in meters", "experimental": "Behavioral Evaluation. All behavioral tests are performed in the morning with adult male Sprague-Dawley rats (n=9-11 per group for the experiments with LPS, and n=13-14 per group for the naïve rats).\nOpen Field Test (OFT). Rats are placed in an open field box (76.5×76.5×40 cm^3) under dim lighting and locomotor activity over a 10 minute period is measured using ANY-Maze Software (Stoelting Co., Wood Dale, IL).\nLocomotion in an open field (track length in meters) is also measured as a control. As shown in the following table, locomotor activity is […] regardless of the group: […]"}, "[3]": {"settings": "LPS 500 μg/kg-challenged mice, hippocampus 2 h, label LPS = LPS alone, label Luma = LPS + Luma 3 mg/kg, vs control group"}, "[4]": {"settings": "mice, hippocampus 2 h, Luma 3 mg/kg alone (no LPS), vs control group"}}}
{"compound": "lipopolysaccharide [LPS, reference compound]", "values": [{"measurement": "Hippocampal microglial cytokine mRNA expression IL-1b", "setting": "[1]", "value": 2.82}, {"measurement": "Hippocampal microglial cytokine mRNA expression IL-6", "setting": "[1]", "value": 0.89}, {"measurement": "Hippocampal microglial cytokine mRNA expression TNF-alpha", "setting": "[1]", "value": "−0.28"}, {"measurement": "Hippocampal microglial mRNA expression Csf1R", "setting": "[1]", "value": 0.50}, {"measurement": "Hippocampal microglial mRNA expression NLRP3", "setting": "[1]", "value": 0.71}, {"measurement": "Directed global significance score: Adaptive immune response", "setting": "[2]; [3]", "value": 0.571}, {"measurement": "Directed global significance score: Angiogenesis", "setting": "[2]; [3]", "value": "−0.144"}, {"measurement": "Directed global significance score: Apoptosis", "setting": "[2]; [3]", "value": 0.915}, {"measurement": "Directed global significance score: Astrocyte function", "setting": "[2]; [3]", "value": 1.391}, {"measurement": "Directed global significance score: Autophagy", "setting": "[2]; [3]", "value": 0.588}, {"measurement": "Directed global significance score: Carbohydrate metabolism", "setting": "[2]; [3]", "value": 0.507}, {"measurement": "Directed global significance score: Cell cycle", "setting": "[2]; [3]", "value": "−0.148"}, {"measurement": "Directed global significance score: Cellular stress", "setting": "[2]; [3]", "value": 0.499}, {"measurement": "Directed global significance score: Cytokine signaling", "setting": "[2]; [3]", "value": 0.993}, {"measurement": "Directed global significance score: DNA damage", "setting": "[2]; [3]", "value": 0.578}, {"measurement": "Directed global significance score: Epigenetic regulation", "setting": "[2]; [3]", "value": 0.312}, {"measurement": "Directed global significance score: Growth factor signaling", "setting": "[2]; [3]", "value": 0.76}, {"measurement": "Directed global significance score: Inflammatory signaling", "setting": "[2]; [3]", "value": 1.086}, {"measurement": "Directed global significance score: Innate immune response", "setting": "[2]; [3]", "value": 0.939}, {"measurement": "Directed global significance score: Insulin signaling", "setting": "[2]; [3]", "value": 0.28}, {"measurement": "Directed global significance score: Lipid metabolism", "setting": "[2]; [3]", "value": "−0.192"}, {"measurement": "Directed global significance score: Matrix remodeling", "setting": "[2]; [3]", "value": "−0.583"}, {"measurement": "Directed global significance score: Microglia function", "setting": "[2]; [3]", "value": 0.377}, {"measurement": "Directed global significance score: Neurons and neurotransmission", "setting": "[2]; [3]", "value": "−0.422"}, {"measurement": "Directed global significance score: Notch", "setting": "[2]; [3]", "value": 0.876}, {"measurement": "Directed global significance score: Oligodendrocyte function", "setting": "[2]; [3]", "value": 0.181}, {"measurement": "Directed global significance score: Wnt", "setting": "[2]; [3]", "value": "−0.476"}, {"measurement": "Open field track length", "setting": "Sprague-Dawley rats", "value": 12.81}]}
{"compound": "CN1CCN2c3c(cccc31)[C@@H]1CN(CCCC(=O)c3ccc(F)cc3)CC[C@@H]12", "note": "[Luma, lumateperone]", "values": [{"measurement": "Hippocampal microglial cytokine mRNA expression IL-1b", "setting": "[1]", "value": 0.38}, {"measurement": "Hippocampal microglial cytokine mRNA expression IL-6", "setting": "[1]", "value": "−0.22"}, {"measurement": "Hippocampal microglial cytokine mRNA expression TNF-alpha", "setting": "[1]", "value": "−1.00"}, {"measurement": "Hippocampal microglial mRNA expression Csf1R", "setting": "[1]", "value": "−0.05"}, {"measurement": "Hippocampal microglial mRNA expression NLRP3", "setting": "[1]", "value": "−0.48"}, {"measurement": "Directed global significance score: DNA damage", "setting": "[2]; [3]", "value": 0.042}, {"measurement": "Directed global significance score: Inflammatory signaling", "setting": "[2]; [3]", "value": "−0.93"}, {"measurement": "Directed global significance score: Lipid metabolism", "setting": "[2]; [3]", "value": 0.89}, {"measurement": "Directed global significance score: Oligodendrocyte function", "setting": "[2]; [3]", "value": 0.48}, {"measurement": "Genes that promote inflammation (e.g., Osmr, Tnfrsf1a, Tnfrsf11b, Prl, Il1r1), cytokine-specific gene expression", "setting": "[2]; ROSALIND analysis, LPS+Luma versus LPS alone, filter P<0.04999, mice hippocampus", "value": "significantly downregulates"}, {"measurement": "Directed global significance score: Adaptive immune response", "setting": "[2]; [4]", "value": 0.344}, {"measurement": "Directed global significance score: Angiogenesis", "setting": "[2]; [4]", "value": 0.616}, {"measurement": "Directed global significance score: Apoptosis", "setting": "[2]; [4]", "value": "−0.442"}, {"measurement": "Directed global significance score: Astrocyte function", "setting": "[2]; [4]", "value": "−0.837"}, {"measurement": "Directed global significance score: Autophagy", "setting": "[2]; [4]", "value": "−0.731"}, {"measurement": "Directed global significance score: Carbohydrate metabolism", "setting": "[2]; [4]", "value": "−0.837"}, {"measurement": "Directed global significance score: Cell cycle", "setting": "[2]; [4]", "value": "−0.75"}, {"measurement": "Directed global significance score: Cellular stress", "setting": "[2]; [4]", "value": "−0.432"}, {"measurement": "Directed global significance score: Cytokine signaling", "setting": "[2]; [4]", "value": "−0.543"}, {"measurement": "Directed global significance score: DNA damage", "setting": "[2]; [4]", "value": "−0.614"}, {"measurement": "Directed global significance score: Epigenetic regulation", "setting": "[2]; [4]", "value": 0.729}, {"measurement": "Directed global significance score: Growth factor signaling", "setting": "[2]; [4]", "value": 0.226}, {"measurement": "Directed global significance score: Inflammatory signaling", "setting": "[2]; [4]", "value": "−1.032"}, {"measurement": "Directed global significance score: Innate immune response", "setting": "[2]; [4]", "value": "−0.611"}, {"measurement": "Directed global significance score: Insulin signaling", "setting": "[2]; [4]", "value": 0.858}, {"measurement": "Directed global significance score: Lipid metabolism", "setting": "[2]; [4]", "value": "−0.818"}, {"measurement": "Directed global significance score: Matrix remodeling", "setting": "[2]; [4]", "value": "−0.4"}, {"measurement": "Directed global significance score: Microglia function", "setting": "[2]; [4]", "value": 0.466}, {"measurement": "Directed global significance score: Notch", "setting": "[2]; [4]", "value": 0.834}, {"measurement": "Directed global significance score: Oligodendrocyte function", "setting": "[2]; [4]", "value": "−1.176"}, {"measurement": "Directed global significance score: Wnt", "setting": "[2]; [4]", "value": 0.9}, {"measurement": "OFT locomotion", "setting": "Sprague-Dawley rats; naïve rats, Luma 1 mg/kg IP on days 1 and 3, 10 minutes", "value": "32.8 ± 10.2", "unit": "m"}, {"measurement": "Open field track length", "setting": "Sprague-Dawley rats", "value": 12.27}]}
